Among the data in article PMC6401853, “Fabrication of Carbohydrate Chips Based on Polydopamine for Real-Time Determination of Carbohydrate–Lectin Interactions by QCM Biosensor” (Polymers, 2018) are Kd values, retold here.

Structures are written as SMILES.

The target of this assay is wheat germ agglutinin (WGA). In words: QCM biosensor kinetics, lectin over immobilized amino-GlcNAc derivative on polydopamine chip, […] fit. It counts as binding.

In general, Kd refers to the concentration at which binding is half-saturated. Read a low Kd as higher affinity. The molecule `CC(=O)N[C@H]1C(O)O[C@H](CO)[C@@H](O)[C@@H]1O` (stereo partly shown) [N-Acetylglucosamine] displayed a Kd of 47.2 nM.
